Experimental data from EP0386657A1, “Preparation for treating systemic lupus erythematosus” (MECT CORPORATION, priority 1989, dated 1990).
Read-outs that look alike come from different tables or passages of the source.

Experiments:
[1] = acute toxicity test, guinea pig; settings: in vivo, iv, 14 days observed, read-out: LD₅₀
Text: (§1) Acute toxicity tests of sodium N-acetylneuraminate against mouse, rat and guinea pig due to oral, subcutaneous injection, intraperitoneal injection, intravenous injection and inhalation were effected as shown below. • (1) Animals to be tested ICR mouse 6 weeks old SD rat 6 weeks old Hartley guinea pig 6 weeks old • (2) Chemicals concentration 20 % (w/v) dissolved in distilled water • (3) Animal number per one level Ten • (4) Terms observed 14 days • (5) Calculation method of LD₅₀ Probit method

SD rat = experiment: acute toxicity test, rat; type: in vivo
Text: as §1
(§2) Inhalation is effected by exposing powder to be tested for one hour.

acute toxicity test, rat = type: in vivo; settings: in vivo, male, 14 days observed, read-out: LD₅₀
Text: as §1, §2

[2] = acute toxicity test, mouse; type: in vivo; settings: in vivo, male, 14 days observed, read-out: LD₅₀
Text: as §1

ICR mouse = experiment: acute toxicity test, mouse; type: in vivo; settings: female, 14 days observed
Text: as §1

passive Arthus reaction = passive Arthus reaction (bleeding of skin); type: in vivo, Male Hartley guinea pig
Method: Male Hartley guinea pig weighing 300 to 400 g was used.
According to the conventional method, Anti-OA (rabbit) was prepared. That is, by using New Zealand strain rabbits having a weight of 2.0 to 2.2 kg, 1 ml of an emulsion comprising 20 mg of OA and Freund complete adjuvant (available from DIFCO LABORATORIES) was subcutaneously injected to back side portion and active sensitization was effected for total 4 times for every two weeks.
After two weeks from the final sensitizing date, blood was gathered from common carotid artery and after separation of antiserum, it was stored under freezing at -20°C by the usage for experiment.
The passive Arthus reaction was effected according to the method of Katayama et al. [S. Katayama, et al., Arzneim.-Forsh., vol. 31, p. […] However, in order to cause sufficient reaction, change were added to a cocentration of OA solution. That is, sensitization was effected by intravenously injecting 1 ml of antiserum stock solution and 30 minutes after, the reaction was caused by intradermally injecting respective 0.05 ml of OA solutions, each containing 0.025 mg and 0.05 mg of OA respectively, to each one portion of an abdominal part and total two portions of guinea pig at which hair was cut at the day before. At this time, a physiological saline solution was intradermal injected simultaneously in the same manner as a blank. […] And, the value was calibrated by the blank to be made as the experimental results.
1, 5 or 20 mg/kg of sodium N-acetylneuraminate, or physiological saline solution (1 mg/kg) as a control was intravenously injected before 30 minutes of antigen-challenge or immediately after sensitization.
Also, Student's t-test was employed for significant test and p < 0.05 was made as statistically significant.

[3] = simple acute toxicity test, intravenous injection to mouse; type: in vivo, ddy male mouse; settings: mouse, in vivo, observed 7 days, 3 mice, read-out: Final death rate (converted)
Method: (§3) Simple acute toxicity test of the agent to be tested due to intravenous injection to mouse was effected as shown below.
(§4) • (1) Agents to be tested Lithium salt, potassium salt, barium salt and magnesium salt of N-acetylneuraminic acid (all available from MECT Corporation) were used. • (2) Animal for experiment ddy male mouse Weight at initial of the test : 17.7 to 21.1 g Animal number per one level : 3 • (3) Room temperature : 23 ± 1 °C, Humidity : 55 ± 7 % • (4) Administration route : intravenous • (5) Administration method and amount thereof The above agent to be tested was dissolved with a physiological saline solution, and that which is prepared so as to become the administration amount of 0.2 ml per 20 g of mouse weight was injected into a tail vein. An administered amount was made to three levels of 500, 1000 and 2000 mg/kg. • (6) Observation of general condition and death condition Observations of the general condition and presence or absence of death were conducted from immediately after administration to after 7 days.

ddy male mouse = experiment: as above; type: in vivo; settings: 3 mice; for Final death rate: observed 7 days
Method: as §3, §4

Compound: CC(=O)N[C@H]1[C@H]([C@H](O)[C@H](O)CO)OC(O)(C(=O)[O-])C[C@@H]1O.[Na+] (stereo partly shown)
- LD50 at 336 h [1]: > 5000 mg/kg
- LD₅₀ (SD rat; female, i.p., 14 days observed): >5,000 mg/kg
- LD₅₀ (SD rat; female, i.v., 14 days observed): >5,000 mg/kg
- LD₅₀ (SD rat; female, inhalation, powder exposure for one hour): >4,000 mg/m³
- LD₅₀ (SD rat; female, p.o., 14 days observed): >5,000 mg/kg
- LD₅₀ (SD rat; female, s.c., 14 days observed): >5,000 mg/kg
- LD₅₀ (SD rat; male, inhalation, powder exposure for one hour): >4,000 mg/m³
- LD50 at 336 h (acute toxicity test, rat; ip, i.p.): > 5000 mg/kg
- LD50 at 336 h (acute toxicity test, rat; iv, i.v.): > 5000 mg/kg
- LD50 at 336 h (acute toxicity test, rat; po, p.o.): > 5000 mg/kg
- LD50 at 336 h (acute toxicity test, rat; sc, s.c.): > 5000 mg/kg
- LD50 at 336 h ([2]; ip, i.p.): > 5000 mg/kg
- LD50 at 336 h ([2]; iv, i.v.): > 5000 mg/kg
- LD50 at 336 h ([2]; po, p.o.): > 5000 mg/kg
- LD50 at 336 h ([2]; sc, s.c.): > 5000 mg/kg
- LD₅₀ (ICR mouse; i.p.): >5,000 mg/kg
- LD₅₀ (ICR mouse; i.v.): >5,000 mg/kg
- LD₅₀ (ICR mouse; p.o.): >5,000 mg/kg
- LD₅₀ (ICR mouse; s.c.): >5,000 mg/kg
- bleeding of skin (passive Arthus reaction; 20 mg/kg intravenously, guinea pig): remarkable
- bleeding of skin (passive Arthus reaction; 1, 5 or 20 mg/kg intravenously, 30 minutes before antigen challenge, guinea pig, Fig. 1 and Fig. 2): depressed depending on an amount to be used
- inhibiting effect on bleeding of skin (passive Arthus reaction; 24 hours after antigen challenge, guinea pig): continued even after 24 hours from antigen challenge

Compound: CC(=O)NC1C(O)CC(O)(C(=O)O)OC1C(O)C(O)CO (stereo not shown) [Barium N-acetylneuraminate]
- mortality at 168 h ([3]; 500 mg/kg intravenous): 100%

Compound: CC(=O)N[C@H]1[C@H]([C@H](O)[C@H](O)CO)OC(O)(C(=O)[O-])C[C@@H]1O.[Li+] (stereo partly shown) [Lithium N-acetylneuraminate]
- Died number with a lapse of time (ddy male mouse; 500 mg/kg intravenous, 1 hrs): 0
- Died number with a lapse of time (ddy male mouse; 500 mg/kg intravenous, 3 hrs): 0
- Died number with a lapse of time (ddy male mouse; 500 mg/kg intravenous, 6 hrs): 0
- Died number with a lapse of time (ddy male mouse; 500 mg/kg intravenous, 24 hrs): 0
- Died number with a lapse of time (ddy male mouse; 500 mg/kg intravenous, 2 days): 0
- Died number with a lapse of time (ddy male mouse; 500 mg/kg intravenous, 3 days): 0
- Died number with a lapse of time (ddy male mouse; 500 mg/kg intravenous, 4 days): 0
- Died number with a lapse of time (ddy male mouse; 500 mg/kg intravenous, 5 days): 0
- Died number with a lapse of time (ddy male mouse; 500 mg/kg intravenous, 6 days): 0
- Died number with a lapse of time (ddy male mouse; 500 mg/kg intravenous, 7 days): 0
- Final death rate (ddy male mouse; 500 mg/kg intravenous): 0/3
- Died number with a lapse of time (ddy male mouse; 1000 mg/kg intravenous, 1 hrs): 0
- Died number with a lapse of time (ddy male mouse; 1000 mg/kg intravenous, 3 hrs): 0
- Died number with a lapse of time (ddy male mouse; 1000 mg/kg intravenous, 6 hrs): 0
- Died number with a lapse of time (ddy male mouse; 1000 mg/kg intravenous, 24 hrs): 0
- Died number with a lapse of time (ddy male mouse; 1000 mg/kg intravenous, 2 days): 0
- Died number with a lapse of time (ddy male mouse; 1000 mg/kg intravenous, 3 days): 0
- Died number with a lapse of time (ddy male mouse; 1000 mg/kg intravenous, 4 days): 0
- Died number with a lapse of time (ddy male mouse; 1000 mg/kg intravenous, 5 days): 0
- Died number with a lapse of time (ddy male mouse; 1000 mg/kg intravenous, 6 days): 0
- Died number with a lapse of time (ddy male mouse; 1000 mg/kg intravenous, 7 days): 0
- Final death rate (ddy male mouse; 1000 mg/kg intravenous): 0/3
- Died number with a lapse of time (ddy male mouse; 2000 mg/kg intravenous, 1 hrs): 0
- Died number with a lapse of time (ddy male mouse; 2000 mg/kg intravenous, 3 hrs): 0
- Died number with a lapse of time (ddy male mouse; 2000 mg/kg intravenous, 6 hrs): 0
- Died number with a lapse of time (ddy male mouse; 2000 mg/kg intravenous, 24 hrs): 0
- Died number with a lapse of time (ddy male mouse; 2000 mg/kg intravenous, 2 days): 0
- Died number with a lapse of time (ddy male mouse; 2000 mg/kg intravenous, 3 days): 0
- Died number with a lapse of time (ddy male mouse; 2000 mg/kg intravenous, 4 days): 0
- Died number with a lapse of time (ddy male mouse; 2000 mg/kg intravenous, 5 days): 0
- Died number with a lapse of time (ddy male mouse; 2000 mg/kg intravenous, 6 days): 0
- Died number with a lapse of time (ddy male mouse; 2000 mg/kg intravenous, 7 days): 0
- Final death rate (ddy male mouse; 2000 mg/kg intravenous): 0/3

Compound: CC(=O)NC1C(O)CC(O)(C(=O)O)OC1C(O)C(O)CO (stereo not shown) [Magnesium N-acetylneuraminate]
- mortality at 168 h ([3]; 1000 mg/kg intravenous): 100%
- mortality at 168 h ([3]; 2000 mg/kg intravenous): 100%

Compound: CC(=O)N[C@H]1[C@H]([C@H](O)[C@H](O)CO)OC(O)(C(=O)O)C[C@@H]1O (stereo partly shown) [N-acetylneuraminic acid]
- inhibiting effect to Arthus reaction (passive Arthus reaction; general statement, in vivo): has inhibiting effect to Arthus reaction

Compound: CC(=O)N[C@H]1[C@H]([C@H](O)[C@H](O)CO)OC(O)(C(=O)[O-])C[C@@H]1O.[K+] (stereo partly shown) [Potassium N-acetylneuraminate]
- mortality at 168 h ([3]; 1000 mg/kg intravenous): 100%
- mortality at 168 h ([3]; 2000 mg/kg intravenous): 100%
- Died number with a lapse of time (ddy male mouse; 500 mg/kg intravenous, 1 hrs): 0
- Died number with a lapse of time (ddy male mouse; 500 mg/kg intravenous, 3 hrs): 0
- Died number with a lapse of time (ddy male mouse; 500 mg/kg intravenous, 6 hrs): 0
- Died number with a lapse of time (ddy male mouse; 500 mg/kg intravenous, 24 hrs): 0
- Died number with a lapse of time (ddy male mouse; 500 mg/kg intravenous, 2 days): 0
- Died number with a lapse of time (ddy male mouse; 500 mg/kg intravenous, 3 days): 0
- Died number with a lapse of time (ddy male mouse; 500 mg/kg intravenous, 4 days): 0
- Died number with a lapse of time (ddy male mouse; 500 mg/kg intravenous, 5 days): 0
- Died number with a lapse of time (ddy male mouse; 500 mg/kg intravenous, 6 days): 0
- Died number with a lapse of time (ddy male mouse; 500 mg/kg intravenous, 7 days): 0
- Final death rate (ddy male mouse; 500 mg/kg intravenous): 0/3
- Died number with a lapse of time (ddy male mouse; 1000 mg/kg intravenous, 1 hrs): 3
- Died number with a lapse of time (ddy male mouse; 1000 mg/kg intravenous, 3 hrs): 0
- Died number with a lapse of time (ddy male mouse; 1000 mg/kg intravenous, 6 hrs): 0
- Died number with a lapse of time (ddy male mouse; 1000 mg/kg intravenous, 24 hrs): 0
- Died number with a lapse of time (ddy male mouse; 1000 mg/kg intravenous, 2 days): 0
- Died number with a lapse of time (ddy male mouse; 1000 mg/kg intravenous, 3 days): 0
- Died number with a lapse of time (ddy male mouse; 1000 mg/kg intravenous, 4 days): 0
- Died number with a lapse of time (ddy male mouse; 1000 mg/kg intravenous, 5 days): 0
- Died number with a lapse of time (ddy male mouse; 1000 mg/kg intravenous, 6 days): 0
- Died number with a lapse of time (ddy male mouse; 1000 mg/kg intravenous, 7 days): 0
- Final death rate (ddy male mouse; 1000 mg/kg intravenous): 3/3
- Died number with a lapse of time (ddy male mouse; 2000 mg/kg intravenous, 1 hrs): 3
- Died number with a lapse of time (ddy male mouse; 2000 mg/kg intravenous, 3 hrs): 0
- Died number with a lapse of time (ddy male mouse; 2000 mg/kg intravenous, 6 hrs): 0
- Died number with a lapse of time (ddy male mouse; 2000 mg/kg intravenous, 24 hrs): 0
- Died number with a lapse of time (ddy male mouse; 2000 mg/kg intravenous, 2 days): 0
- Died number with a lapse of time (ddy male mouse; 2000 mg/kg intravenous, 3 days): 0
- Died number with a lapse of time (ddy male mouse; 2000 mg/kg intravenous, 4 days): 0
- Died number with a lapse of time (ddy male mouse; 2000 mg/kg intravenous, 5 days): 0
- Died number with a lapse of time (ddy male mouse; 2000 mg/kg intravenous, 6 days): 0
- Died number with a lapse of time (ddy male mouse; 2000 mg/kg intravenous, 7 days): 0
- Final death rate (ddy male mouse; 2000 mg/kg intravenous): 3/3
